Tests used:
Experiment in all cases: relative viability (nuclei count vs DMSO), 5 days (fraction); higher = more cells survive
NCI-H1651 = system: NCI-H1651
How it was run: (§1)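 The day after seeding in 1536-well plates, lung cancer cell lines were treated by pin tool with a single drug, or with a fixed anchor-drug dose together with five library-drug doses (not always all listed) in √10 steps. After 5 days, a combined fix-and-stain solution (final 0.05% Triton X-100, 1% formaldehyde, 1 ug/ml Hoechst) was added. Nuclei counted on 4× images gave relative viability as treated counts over vehicle counts, reported as the median of duplicate plates.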

H3255 = system: H3255
How it was run: as §1

NCI-H838 = system: NCI-H838
How it was run: as §1

NCI-H647 = system: NCI-H647
How it was run: as §1

NCI-H1793 = system: NCI-H1793
How it was run: as §1

NCI-H522 = system: NCI-H522
How it was run: as §1

NCI-H650 = system: NCI-H650
How it was run: as §1

HARA = system: HARA
How it was run: as §1

NCI-H322M = system: NCI-H322M
How it was run: as §1

NCI-H441 = system: NCI-H441
How it was run: as §1

HCC-15 = system: HCC-15
How it was run: as §1

NCI-H1395 = system: NCI-H1395
How it was run: as §1

LC-2-ad = system: LC-2-ad
How it was run: as §1

NCI-H1915 = system: NCI-H1915
How it was run: as §1

NCI-H2085 = system: NCI-H2085
How it was run: as §1

NCI-H2347 = system: NCI-H2347
How it was run: as §1

UMC-11 = system: UMC-11
How it was run: as §1

NCI-H661 = system: NCI-H661
How it was run: as §1

HCC-366 = system: HCC-366
How it was run: as §1

NCI-H2170 = system: NCI-H2170
How it was run: as §1

LXF-289 = system: LXF-289
How it was run: as §1

LOU-NH91 = system: LOU-NH91
How it was run: as §1

CAL-12T = system: CAL-12T
How it was run: as §1

SK-MES-1 = system: SK-MES-1
How it was run: as §1

BEN = system: BEN
How it was run: as §1

Nc1cccc2c1CN(C1CCC(=O)NC1=O)C2=O (configuration not stated) [Lenalidomide] + CC(=O)Nc1cccc(-n2c(=O)n(C3CC3)c(=O)c3c(Nc4ccc(I)cc4F)n(C)c(=O)c(C)c32)c1 [Trametinib] (partner 0.02 µM)
relative viability (NCI-H1651; first compound 0.253 µM): 0.79
relative viability (NCI-H1651; first compound 0.8 µM): 0.932
relative viability (NCI-H1651; first compound 2.53 µM): 0.902
relative viability (NCI-H1651; first compound 8 µM): 0.82
relative viability (H3255; first compound 0.253 µM): 0.547
relative viability (H3255; first compound 0.8 µM): 0.624
relative viability (H3255; first compound 2.53 µM): 0.661
relative viability (H3255; first compound 8 µM): 0.541
relative viability (NCI-H838; first compound 0.253 µM): 0.517
relative viability (NCI-H838; first compound 0.8 µM): 0.463
relative viability (NCI-H838; first compound 2.53 µM): 0.625
relative viability (NCI-H838; first compound 8 µM): 0.378
relative viability (NCI-H647; first compound 0.253 µM): 0.47
relative viability (NCI-H647; first compound 0.8 µM): 0.413
relative viability (NCI-H647; first compound 2.53 µM): 0.691
relative viability (NCI-H647; first compound 8 µM): 0.422
relative viability (NCI-H1793; first compound 0.253 µM): 0.458
relative viability (NCI-H1793; first compound 2.53 µM): 0.474
relative viability (NCI-H1793; first compound 8 µM): 0.451
relative viability (NCI-H522; first compound 0.253 µM): 0.813
relative viability (NCI-H522; first compound 0.8 µM): 0.803
relative viability (NCI-H522; first compound 2.53 µM): 0.725
relative viability (NCI-H522; first compound 8 µM): 0.623
relative viability (NCI-H650; first compound 0.253 µM): 0.983
relative viability (NCI-H650; first compound 0.8 µM): 1
relative viability (NCI-H650; first compound 2.53 µM): 0.963
relative viability (NCI-H650; first compound 8 µM): 0.891
relative viability (HARA; first compound 0.253 µM): 0.715
relative viability (HARA; first compound 2.53 µM): 0.542
relative viability (HARA; first compound 8 µM): 1.04
relative viability (NCI-H322M; first compound 0.253 µM): 0.507
relative viability (NCI-H322M; first compound 0.8 µM): 0.527
relative viability (NCI-H322M; first compound 2.53 µM): 0.508
relative viability (NCI-H322M; first compound 8 µM): 0.511
relative viability (NCI-H441; first compound 0.253 µM): 0.484
relative viability (NCI-H441; first compound 0.8 µM): 0.258
relative viability (NCI-H441; first compound 2.53 µM): 0.623
relative viability (NCI-H441; first compound 8 µM): 0.387
relative viability (HCC-15; first compound 0.253 µM): 0.412
relative viability (HCC-15; first compound 0.8 µM): 0.427
relative viability (HCC-15; first compound 2.53 µM): 0.377
relative viability (HCC-15; first compound 8 µM): 0.334
relative viability (NCI-H1395; first compound 0.253 µM): 0.988
relative viability (NCI-H1395; first compound 2.53 µM): 1.1
relative viability (NCI-H1395; first compound 8 µM): 0.929
relative viability (LC-2-ad; first compound 0.253 µM): 0.868
relative viability (LC-2-ad; first compound 0.8 µM): 0.943
relative viability (LC-2-ad; first compound 2.53 µM): 0.972
relative viability (LC-2-ad; first compound 8 µM): 0.968
relative viability (NCI-H1915; first compound 0.253 µM): 0.306
relative viability (NCI-H1915; first compound 0.8 µM): 0.319
relative viability (NCI-H1915; first compound 2.53 µM): 0.323
relative viability (NCI-H1915; first compound 8 µM): 0.283
relative viability (NCI-H2085; first compound 0.253 µM): 0.507
relative viability (NCI-H2085; first compound 0.8 µM): 0.405
relative viability (NCI-H2085; first compound 2.53 µM): 0.515
relative viability (NCI-H2085; first compound 8 µM): 0.464
relative viability (NCI-H2347; first compound 0.253 µM): 0.329
relative viability (NCI-H2347; first compound 0.8 µM): 0.279
relative viability (NCI-H2347; first compound 2.53 µM): 0.323
relative viability (NCI-H2347; first compound 8 µM): 0.179
relative viability (UMC-11; first compound 0.253 µM): 0.514
relative viability (UMC-11; first compound 0.8 µM): 0.449
relative viability (UMC-11; first compound 2.53 µM): 0.885
relative viability (UMC-11; first compound 8 µM): 0.472
relative viability (NCI-H661; first compound 0.253 µM): 0.529
relative viability (NCI-H661; first compound 0.8 µM): 0.593
relative viability (NCI-H661; first compound 2.53 µM): 0.591
relative viability (NCI-H661; first compound 8 µM): 0.533
relative viability (HCC-366; first compound 0.253 µM): 0.33
relative viability (HCC-366; first compound 0.8 µM): 0.353
relative viability (HCC-366; first compound 2.53 µM): 0.386
relative viability (HCC-366; first compound 8 µM): 0.264
relative viability (NCI-H2170; first compound 0.253 µM): 0.933
relative viability (NCI-H2170; first compound 0.8 µM): 0.886
relative viability (NCI-H2170; first compound 2.53 µM): 0.954
relative viability (NCI-H2170; first compound 8 µM): 0.823
relative viability (LXF-289; first compound 0.253 µM): 0.661
relative viability (LXF-289; first compound 0.8 µM): 0.604
relative viability (LXF-289; first compound 2.53 µM): 0.671
relative viability (LXF-289; first compound 8 µM): 0.691
relative viability (LOU-NH91; first compound 0.253 µM): 0.786
relative viability (LOU-NH91; first compound 0.8 µM): 0.78
relative viability (LOU-NH91; first compound 2.53 µM): 0.771
relative viability (LOU-NH91; first compound 8 µM): 0.679
relative viability (CAL-12T; first compound 0.253 µM): 0.371
relative viability (CAL-12T; first compound 0.8 µM): 0.292
relative viability (CAL-12T; first compound 2.53 µM): 0.431
relative viability (CAL-12T; first compound 8 µM): 0.306
relative viability (SK-MES-1; first compound 0.253 µM): 0.599
relative viability (SK-MES-1; first compound 0.8 µM): 0.628
relative viability (SK-MES-1; first compound 2.53 µM): 0.568
relative viability (SK-MES-1; first compound 8 µM): 0.578
relative viability (BEN; first compound 0.253 µM): 1.1
relative viability (BEN; first compound 0.8 µM): 1.07
relative viability (BEN; first compound 2.53 µM): 1.18
relative viability (BEN; first compound 8 µM): 0.913
